One data set has as its target T1, TRPC5 (Homo sapiens, UniProt Q9UL62).
T1 sequence (Q9UL62 1-973): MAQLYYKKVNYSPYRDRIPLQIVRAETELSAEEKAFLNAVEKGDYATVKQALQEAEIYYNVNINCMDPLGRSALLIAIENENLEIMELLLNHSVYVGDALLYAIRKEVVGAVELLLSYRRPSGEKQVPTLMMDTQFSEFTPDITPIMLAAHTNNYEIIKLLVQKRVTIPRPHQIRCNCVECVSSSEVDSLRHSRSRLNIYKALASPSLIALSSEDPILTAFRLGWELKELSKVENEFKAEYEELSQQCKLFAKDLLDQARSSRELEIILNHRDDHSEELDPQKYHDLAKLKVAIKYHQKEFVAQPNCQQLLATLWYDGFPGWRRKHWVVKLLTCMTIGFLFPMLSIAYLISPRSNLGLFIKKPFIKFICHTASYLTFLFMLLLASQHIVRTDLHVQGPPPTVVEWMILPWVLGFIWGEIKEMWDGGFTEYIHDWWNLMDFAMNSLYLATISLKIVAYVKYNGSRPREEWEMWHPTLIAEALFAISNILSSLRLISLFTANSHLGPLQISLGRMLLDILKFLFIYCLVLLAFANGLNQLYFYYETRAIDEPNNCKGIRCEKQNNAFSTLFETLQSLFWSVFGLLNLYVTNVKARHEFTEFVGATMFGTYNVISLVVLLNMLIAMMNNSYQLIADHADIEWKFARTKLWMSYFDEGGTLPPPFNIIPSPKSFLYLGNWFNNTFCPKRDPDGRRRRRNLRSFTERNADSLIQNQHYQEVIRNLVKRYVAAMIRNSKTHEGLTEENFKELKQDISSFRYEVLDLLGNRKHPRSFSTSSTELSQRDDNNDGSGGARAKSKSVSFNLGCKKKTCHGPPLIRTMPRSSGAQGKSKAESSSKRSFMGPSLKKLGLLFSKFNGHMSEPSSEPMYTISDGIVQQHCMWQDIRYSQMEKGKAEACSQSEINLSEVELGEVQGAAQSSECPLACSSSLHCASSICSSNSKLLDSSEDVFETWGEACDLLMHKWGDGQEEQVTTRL
Format: cell-based. Particulars: 100 nmol/L EA; read-out: IC50, TRPC5, whole-cell patch-clamp.

Another data set addresses T2, TRPC1/5 (Homo sapiens, UniProt P48995+Q9UL62).
T2 construct: full-length wild-type or mutant TRPC5 was cloned into a pcDNA3.1 vector; expressed in transfected cells; host or cells: HEK293T
Nature of the data set: Whole-cell patch-clamp, TRPC1/5 heteromer, 100 nmol/L EA. Format: cell-based. The note with it: read-out: IC50, TRPC1/5. From the text: Given that TRPC4 and TRPC5 are highly similar and often form heteromeric with TRPC1, we evaluated JDIC-127's activity on TRPC4, TRPC1/4, and TRPC1/5 using whole-cell patch-clamp recordings under agonist stimulation with 100 nmol/L EA in HEK293T cells. […].
For electrophysiological activity testing of compounds against TRPC4 and TRPC5, stably expressed TRPC5 or TRPC4 cells were used for whole-cell patch-clamp recordings, employing a HEKA EPC10 amplifier and […] software (https://www.heka.com/downloads/downloads_main.html#down_patchmaster). Prior to recording, cells were induced with 1 μg/mL tetracycline for 24 h. For TRPC1/4 or TRPC1/5 heteromers, plasmids TRPC1 and TRPC5 or TRPC1 and TRPC4 were co-transfected into HEK293T cells. After 48 to 72 h of transfection, testing was performed. A 1-s ramp protocol from −100 to +100 mV at 0.2 Hz was applied, as previously described. The extracellular solution consisted of 140 mmol/L NaCl, 1 mmol/L MgCl2, 2 mmol/L CaCl2, 10 mmol/L Hepes, 5 mmol/L KCl, and 10 mmol/L D-glucose, with pH adjusted to 7.4 using NaOH. […] The half-maximal inhibitory concentration (IC50) of drugs was determined by recording currents at a +100 mV pulse and analyzing current amplitudes at varying drug concentrations, with IC50 values calculated using the Hill equation. […]
In general terms: The patch-clamp technique gives a direct electrical read-out from membranes.

A short description of the next data set: in vitro. Particulars: not told. Type of data set: in vitro ADME. An excerpt: Table 1 Pharmacokinetic properties of JDIC-127. | column: ER; Papp (cm/s)
For data set [1], the system named is C57BL/6J mice. Nature of the data set: CCK-4-induced anxiety model, elevated plus maze. Type of data set: in vivo. The note with it: CCK-4 model, 10 mg/kg p.o.
Data set [2] concerns C57BL/6J mice. Nature of the data set: m-CPP-induced anxiety model, open field test. The note with it: 10 mg/kg p.o. Format: in vivo.
Another data set has as its target T3, M3 (Homo sapiens, UniProt P20309).
T3 construct: purchased ICE Bioscience ICESTP SafetyOne44 Panel
Nature of the data set: cell-based. Format: cell-based.

The next data set has as its target T4, 5-HT1A (Homo sapiens, UniProt P08908).
T4 construct: purchased ICE Bioscience ICESTP SafetyOne44 Panel
Kind of data set: cell-based. Format: cell-based.

In the next data set the target is T5, 5-HT2A (Homo sapiens, UniProt P28223).
T5 construct: purchased ICE Bioscience ICESTP SafetyOne44 Panel
Nature of the data set: cell-based. Type of data set: cell-based.

The target in another data set is T6, A2A (Homo sapiens, UniProt P29274).
T6 construct: purchased ICE Bioscience ICESTP SafetyOne44 Panel
Type of data set: cell-based.

The next data set has as its target T7, CB1 (Homo sapiens, UniProt P21554).
T7 construct: purchased ICE Bioscience ICESTP™ SafetyOne44 Panel
Kind of data set: cell-based. Format: cell-based.

The next data set has as its target T8, DAT (Homo sapiens, UniProt Q01959).
T8 construct: purchased ICE Bioscience ICESTP™ SafetyOne44 Panel
Kind of data set: SafetyOne44 panel: DAT. Type of data set: cell-based. The note with it: 10 μmol/L, read-out: Antagonist JDIC-127 @10 μmol/L.

A further data set addresses T9, 5-HT3A (Homo sapiens, UniProt P46098).
T9 construct: ICE Bioscience ICESTP SafetyOne44 Panel
Type of data set: cell-based.

In another data set the target is T10, Cav1.2 (Homo sapiens, UniProt Q13936).
T10 construct: ICE Bioscience ICESTP SafetyOne44 Panel
Format: cell-based. The note with it: Cav1.2, 5 μmol/L.

Setting [3] is: antagonist mode, 10 μmol/L, read-out: Antagonist JDIC-127 @10 μmol/L.

1 compound from article PMC12827894, “Structure-guided design of picomolar-level macrocyclic TRPC5 channel inhibitors with antidepressant activity” (Acta Pharmaceutica Sinica. B, 2025) can be followed below.

A word on the Papp: it is the rate of passage across a membrane or cell layer, normalised by area and donor concentration. Lower therefore signals slow passage.

T3 sequence (P20309 whole entry): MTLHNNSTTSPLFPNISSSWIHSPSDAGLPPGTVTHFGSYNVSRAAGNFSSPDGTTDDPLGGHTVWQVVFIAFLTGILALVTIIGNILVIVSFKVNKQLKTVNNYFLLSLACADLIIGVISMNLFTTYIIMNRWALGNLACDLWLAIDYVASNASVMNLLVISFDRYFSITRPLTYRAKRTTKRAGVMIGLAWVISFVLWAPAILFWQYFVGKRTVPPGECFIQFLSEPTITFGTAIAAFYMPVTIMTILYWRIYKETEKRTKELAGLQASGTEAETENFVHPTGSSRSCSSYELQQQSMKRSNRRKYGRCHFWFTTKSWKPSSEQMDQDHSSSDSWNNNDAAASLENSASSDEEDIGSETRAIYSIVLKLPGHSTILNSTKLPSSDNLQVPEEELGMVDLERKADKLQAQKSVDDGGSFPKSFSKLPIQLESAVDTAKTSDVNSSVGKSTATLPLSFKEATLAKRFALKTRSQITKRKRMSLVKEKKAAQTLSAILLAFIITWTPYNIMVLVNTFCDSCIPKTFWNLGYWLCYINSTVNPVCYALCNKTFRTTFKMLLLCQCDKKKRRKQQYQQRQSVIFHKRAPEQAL
T7 sequence (P21554 whole entry): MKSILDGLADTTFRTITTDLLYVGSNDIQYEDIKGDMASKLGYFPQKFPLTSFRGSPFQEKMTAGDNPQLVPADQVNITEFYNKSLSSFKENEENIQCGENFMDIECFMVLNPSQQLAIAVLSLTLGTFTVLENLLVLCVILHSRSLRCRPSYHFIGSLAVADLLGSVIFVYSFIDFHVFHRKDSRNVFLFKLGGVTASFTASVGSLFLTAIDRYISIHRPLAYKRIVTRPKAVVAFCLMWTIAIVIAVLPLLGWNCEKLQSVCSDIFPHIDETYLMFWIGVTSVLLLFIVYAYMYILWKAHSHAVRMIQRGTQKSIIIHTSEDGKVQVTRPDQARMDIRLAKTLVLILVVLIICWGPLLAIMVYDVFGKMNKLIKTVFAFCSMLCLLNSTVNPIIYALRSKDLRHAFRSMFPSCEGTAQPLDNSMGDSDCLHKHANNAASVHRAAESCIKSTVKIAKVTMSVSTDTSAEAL
T9 sequence (P46098 24-478, species assumed): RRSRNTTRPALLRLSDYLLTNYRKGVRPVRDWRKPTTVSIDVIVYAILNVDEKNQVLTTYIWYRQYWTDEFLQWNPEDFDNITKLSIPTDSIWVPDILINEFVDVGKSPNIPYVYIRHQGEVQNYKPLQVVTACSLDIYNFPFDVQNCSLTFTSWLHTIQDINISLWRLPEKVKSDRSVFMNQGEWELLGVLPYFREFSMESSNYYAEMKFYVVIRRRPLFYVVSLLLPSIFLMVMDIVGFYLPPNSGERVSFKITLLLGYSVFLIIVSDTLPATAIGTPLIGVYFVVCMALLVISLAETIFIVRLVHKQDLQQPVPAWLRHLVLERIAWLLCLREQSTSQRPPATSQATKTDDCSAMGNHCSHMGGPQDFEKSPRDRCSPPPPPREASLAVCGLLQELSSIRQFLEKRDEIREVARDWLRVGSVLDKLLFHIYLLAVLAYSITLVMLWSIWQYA
T4 sequence (P08908 whole entry): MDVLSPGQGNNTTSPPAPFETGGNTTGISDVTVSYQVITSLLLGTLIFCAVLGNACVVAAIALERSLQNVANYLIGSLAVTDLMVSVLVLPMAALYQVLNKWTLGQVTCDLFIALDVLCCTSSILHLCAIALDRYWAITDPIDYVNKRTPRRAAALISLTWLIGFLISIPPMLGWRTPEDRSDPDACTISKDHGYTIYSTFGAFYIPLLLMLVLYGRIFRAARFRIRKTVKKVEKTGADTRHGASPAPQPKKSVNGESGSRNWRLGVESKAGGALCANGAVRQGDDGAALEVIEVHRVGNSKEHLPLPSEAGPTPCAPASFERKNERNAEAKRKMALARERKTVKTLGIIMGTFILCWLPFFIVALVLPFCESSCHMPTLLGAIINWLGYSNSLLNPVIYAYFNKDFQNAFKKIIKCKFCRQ
T6 sequence (P29274 whole entry): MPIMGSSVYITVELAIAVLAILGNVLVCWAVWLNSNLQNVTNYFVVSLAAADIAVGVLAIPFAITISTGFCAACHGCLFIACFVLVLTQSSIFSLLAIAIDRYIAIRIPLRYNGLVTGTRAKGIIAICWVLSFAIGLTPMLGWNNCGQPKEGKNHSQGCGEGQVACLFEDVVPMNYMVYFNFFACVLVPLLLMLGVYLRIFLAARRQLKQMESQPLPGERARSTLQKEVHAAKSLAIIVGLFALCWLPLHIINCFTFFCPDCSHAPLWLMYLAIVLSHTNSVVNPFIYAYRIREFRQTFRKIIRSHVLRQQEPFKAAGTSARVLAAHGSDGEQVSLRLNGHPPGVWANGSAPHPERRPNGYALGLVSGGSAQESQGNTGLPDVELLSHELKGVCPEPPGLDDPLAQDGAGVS
T5 sequence (P28223 whole entry): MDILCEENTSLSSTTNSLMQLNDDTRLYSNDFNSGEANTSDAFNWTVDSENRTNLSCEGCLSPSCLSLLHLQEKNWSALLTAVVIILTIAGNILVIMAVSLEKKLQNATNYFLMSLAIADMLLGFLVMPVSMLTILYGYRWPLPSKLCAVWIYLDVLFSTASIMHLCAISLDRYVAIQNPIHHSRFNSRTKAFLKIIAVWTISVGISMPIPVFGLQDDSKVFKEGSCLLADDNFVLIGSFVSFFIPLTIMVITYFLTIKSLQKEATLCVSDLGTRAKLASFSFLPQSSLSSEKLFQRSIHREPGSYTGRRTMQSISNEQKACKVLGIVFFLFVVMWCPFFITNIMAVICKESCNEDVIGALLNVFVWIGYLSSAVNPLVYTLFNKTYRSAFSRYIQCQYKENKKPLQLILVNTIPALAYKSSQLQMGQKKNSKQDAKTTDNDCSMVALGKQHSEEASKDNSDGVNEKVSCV
T2 sequence (P48995 whole entry, one chain of several): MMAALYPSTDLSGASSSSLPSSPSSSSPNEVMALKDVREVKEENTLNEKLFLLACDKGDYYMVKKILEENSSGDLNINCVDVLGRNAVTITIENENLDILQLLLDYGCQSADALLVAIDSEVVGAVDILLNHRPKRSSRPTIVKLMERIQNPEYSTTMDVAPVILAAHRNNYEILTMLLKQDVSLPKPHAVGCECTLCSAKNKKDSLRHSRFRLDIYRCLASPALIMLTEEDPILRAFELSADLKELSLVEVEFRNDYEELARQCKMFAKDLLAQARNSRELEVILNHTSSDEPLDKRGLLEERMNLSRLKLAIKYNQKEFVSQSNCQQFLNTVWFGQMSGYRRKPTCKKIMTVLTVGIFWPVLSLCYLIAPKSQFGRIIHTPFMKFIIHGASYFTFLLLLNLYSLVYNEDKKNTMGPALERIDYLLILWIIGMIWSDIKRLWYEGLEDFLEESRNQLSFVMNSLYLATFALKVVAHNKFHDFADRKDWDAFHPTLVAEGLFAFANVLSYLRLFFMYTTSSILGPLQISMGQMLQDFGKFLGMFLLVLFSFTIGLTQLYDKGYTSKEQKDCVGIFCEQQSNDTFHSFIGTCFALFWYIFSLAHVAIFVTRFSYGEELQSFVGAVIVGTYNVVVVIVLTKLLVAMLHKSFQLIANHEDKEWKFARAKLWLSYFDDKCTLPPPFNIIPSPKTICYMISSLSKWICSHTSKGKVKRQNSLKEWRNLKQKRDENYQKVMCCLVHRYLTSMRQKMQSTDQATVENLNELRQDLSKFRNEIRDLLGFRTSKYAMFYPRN
T8 sequence (Q01959 whole entry): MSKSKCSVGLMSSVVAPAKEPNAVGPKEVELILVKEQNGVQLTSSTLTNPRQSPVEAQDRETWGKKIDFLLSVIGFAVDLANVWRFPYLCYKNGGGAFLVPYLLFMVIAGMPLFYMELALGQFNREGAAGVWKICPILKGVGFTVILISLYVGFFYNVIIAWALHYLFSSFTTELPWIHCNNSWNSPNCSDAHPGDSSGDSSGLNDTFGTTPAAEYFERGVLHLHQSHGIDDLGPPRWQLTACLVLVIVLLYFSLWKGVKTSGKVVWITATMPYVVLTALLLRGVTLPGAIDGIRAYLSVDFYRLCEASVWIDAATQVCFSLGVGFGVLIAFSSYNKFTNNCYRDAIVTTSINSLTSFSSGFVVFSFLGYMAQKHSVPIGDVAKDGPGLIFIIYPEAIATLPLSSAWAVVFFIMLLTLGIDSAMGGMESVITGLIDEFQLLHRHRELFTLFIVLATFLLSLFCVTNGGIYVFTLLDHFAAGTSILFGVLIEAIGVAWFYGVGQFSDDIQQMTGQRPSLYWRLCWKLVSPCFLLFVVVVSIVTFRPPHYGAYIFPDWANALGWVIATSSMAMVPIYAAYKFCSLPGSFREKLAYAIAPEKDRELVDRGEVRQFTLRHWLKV

Take `O=c1c2c3nc(n2Cc2ccc(Cl)cc2)Oc2ccc(F)c(c2)OCCCCCCn3c(=O)n1CCCO` [JDIC-127]: the IC50 on TRPC5 was determined as 0.374 nM; at TRPC1/5, 0.358 nM. For the same compound, the ER in “in vitro” was 1.45. The Papp in “in vitro” was 1.51 ×10⁻⁶ cm/s. The “percentage of entries in the open arms, EPM” value with C57BL/6J mice [1] is “significantly increased”. The “number of entries into the central area, OFT” value in the data set on C57BL/6J mice [2] is “significantly increased”. In addition, the “Agonist JDIC-127 @10 μmol/L” value on M3 (M3, agonist mode) was 0.99%; on 5-HT1A (agonist mode), “–1.59%”; on 5-HT2A (agonist mode), 3.92%; on A2A (agonist mode) it was “–1.55%”; on CB1 (CB1, agonist mode), 33.32%. For the same compound, the inhibition at 10 µM at M3 (M3, antagonist mode, 10 μmol/L, read-out: Antagonist JDIC-127 @10 μmol/L) is -1.46%; on 5-HT1A (setting [3]), -6.7%; at 5-HT2A (setting [3]), 5.24%; on CB1 (CB1, antagonist mode, 10 μmol/L, read-out: Antagonist JDIC-127 @10 μmol/L), -9.83%; on DAT, -57.6%. The “Antagonist JDIC-127 @10 μmol/L” value at A2A (antagonist mode) is “–2.78%”. Further, the “Agonist JDIC-127 @ 5 μmol/L” value on 5-HT3A (agonist mode) came out at 0.39%. In addition, the “Antagonist JDIC-127 @5 μmol/L” value worked out at 17.73% on 5-HT3A (antagonist mode) and 20.23% on Cav1.2.
